# According to patent publication US11498899B2, “Nitrone herbicides” (FMC Corporation, priority 2016, dated 2022):
# Experiments:
# [1] = test system: barnyardgrass (Echinochloa crus-galli); assay: Test A preemergence, visual injury rating 0-100 (0 no effect, 100 complete control); assay type: in vivo
# [2] = test system: foxtail, giant (giant foxtail, Setaria faberii); assay: Test A preemergence, visual injury rating 0-100; assay type: in vivo
# kochia (Kochia scoparia) [3] = assay: Test A preemergence, visual injury rating 0-100; assay type: in vivo
# [4] = test system: pigweed (Amaranthus retroflexus); assay: Test A preemergence, visual injury rating 0-100; assay type: in vivo
# [5] = test system: ragweed (common ragweed, Ambrosia elatior); assay: Test A preemergence, visual injury rating 0-100; assay type: in vivo
# [6] = test system: ryegrass, Italian (Italian ryegrass, Lolium multiflorum); assay: Test A preemergence, visual injury rating 0-100; assay type: in vivo; details: 500 g ai/ha
# [7] = test system: barnyardgrass (Echinochloa crus-galli); assay: Test A postemergence, visual injury rating 0-100; assay type: in vivo; details: 0 to 100 scale
# [8] = test system: blackgrass (Alopecurus myosuroides); assay: Test A postemergence, visual injury rating 0-100; assay type: in vivo; details: 0 to 100 scale
# corn (Zea mays) = assay: Test A postemergence, visual injury rating 0-100; assay type: in vivo; details: 0 to 100 scale
# [9] = test system: foxtail, giant (giant foxtail, Setaria faberii); assay: Test A postemergence, visual injury rating 0-100; assay type: in vivo; details: 0 to 100 scale
# [10] = test system: galium (catchweed bedstraw, Galium aparine); assay: Test A postemergence, visual injury rating 0-100; assay type: in vivo; details: 0 to 100 scale
# kochia (Kochia scoparia) [11] = assay: Test A postemergence, visual injury rating 0-100; assay type: in vivo; details: 0 to 100 scale
# [12] = test system: pigweed (Amaranthus retroflexus); assay: Test A postemergence, visual injury rating 0-100; assay type: in vivo; details: 0 to 100 scale
# [13] = test system: ragweed (common ragweed, Ambrosia elatior); assay: Test A postemergence, visual injury rating 0-100; assay type: in vivo; details: 0 to 100 scale
# [14] = test system: ryegrass, Italian (Italian ryegrass, Lolium multiflorum); assay: Test A postemergence, visual injury rating 0-100; assay type: in vivo; details: 0 to 100 scale
# [15] = test system: wheat (Triticum aestivum); assay: Test A postemergence, visual injury rating 0-100; assay type: in vivo; details: 0 to 100 scale
# [16] = test system: ducksalad (Heteranthera limosa); assay: Test B flooded paddy test, visual rating 0-100; details: Flood, 250 g ai/ha, applied to paddy water, rated after 13 to 15 days
# [17] = test system: barnyardgrass (Echinochloa crus-galli); assay: Test B flooded paddy test, visual rating 0-100; details: Flood, 250 g ai/ha, applied to paddy water, rated after 13 to 15 days
# rice (Oryza sativa) = assay: Test B flooded paddy test, visual rating 0-100 (0 no effect, 100 complete control); details: Flood, 250 g ai/ha, applied to paddy water, rated after 13 to 15 days
compound,measurement,setting,value
CCc1cc(CC)cc(C2CC(C)=[N+]([O-])C2C(=O)Nc2cccc(F)c2F)c1 (racemic) [Compound 109],Barnyardgrass plant response rating (0 to 100 scale),[1]; 125 g ai/ha,90
same,Barnyardgrass plant response rating (0 to 100 scale),[1]; 500 g ai/ha,100
same,"Foxtail, Giant plant response rating (0 to 100 scale)",[2]; 125 g ai/ha,90
same,"Foxtail, Giant plant response rating (0 to 100 scale)",[2]; 500 g ai/ha,90
same,Kochia plant response rating (0 to 100 scale),kochia (Kochia scoparia) [3]; 125 g ai/ha,0
same,Kochia plant response rating (0 to 100 scale),kochia (Kochia scoparia) [3]; 500 g ai/ha,50
same,Pigweed plant response rating (0 to 100 scale),[4]; 125 g ai/ha,0
same,Pigweed plant response rating (0 to 100 scale),[4]; 500 g ai/ha,0
same,Ragweed plant response rating (0 to 100 scale),[5]; 125 g ai/ha,0
same,Ragweed plant response rating (0 to 100 scale),[5]; 500 g ai/ha,30
same,"Ryegrass, Italian plant response rating (0 to 100 scale)",[6],100
same,Barnyardgrass plant response rating,[7]; 125 g ai/ha,50
same,Barnyardgrass plant response rating,[7]; 500 g ai/ha,80
same,Blackgrass plant response rating,[8]; 125 g ai/ha,80
same,Blackgrass plant response rating,[8]; 500 g ai/ha,90
same,Corn plant response rating,corn (Zea mays); 125 g ai/ha,80
same,Corn plant response rating,corn (Zea mays); 500 g ai/ha,90
same,"Foxtail, Giant plant response rating",[9]; 125 g ai/ha,80
same,"Foxtail, Giant plant response rating",[9]; 500 g ai/ha,90
same,Galium plant response rating,[10]; 125 g ai/ha,20
same,Galium plant response rating,[10]; 500 g ai/ha,20
same,Kochia plant response rating,kochia (Kochia scoparia) [11]; 125 g ai/ha,0
same,Kochia plant response rating,kochia (Kochia scoparia) [11]; 500 g ai/ha,0
same,Pigweed plant response rating,[12]; 125 g ai/ha,0
same,Pigweed plant response rating,[12]; 500 g ai/ha,0
same,Ragweed plant response rating,[13]; 125 g ai/ha,0
same,Ragweed plant response rating,[13]; 500 g ai/ha,0
same,"Ryegrass, Italian plant response rating",[14]; 125 g ai/ha,70
same,"Ryegrass, Italian plant response rating",[14]; 500 g ai/ha,80
same,Wheat plant response rating,[15]; 125 g ai/ha,20
same,Wheat plant response rating,[15]; 500 g ai/ha,80
same,Ducksalad plant response rating (0 to 100 scale),[16],0
same,Barnyardgrass plant response rating (0 to 100 scale),[17],0
same,Rice plant response rating (0 to 100 scale),rice (Oryza sativa),0
CC1=[N+]([O-])C(C(=O)Nc2cccc(F)c2F)C(c2cc(C(F)(F)F)cc(C(F)(F)F)c2)C1 (racemic) [Compound 110],Barnyardgrass plant response rating (0 to 100 scale),[1]; 125 g ai/ha,90
same,Barnyardgrass plant response rating (0 to 100 scale),[1]; 500 g ai/ha,90
same,"Foxtail, Giant plant response rating (0 to 100 scale)",[2]; 125 g ai/ha,90
same,"Foxtail, Giant plant response rating (0 to 100 scale)",[2]; 500 g ai/ha,90
same,Kochia plant response rating (0 to 100 scale),kochia (Kochia scoparia) [3]; 125 g ai/ha,0
same,Kochia plant response rating (0 to 100 scale),kochia (Kochia scoparia) [3]; 500 g ai/ha,20
same,Pigweed plant response rating (0 to 100 scale),[4]; 125 g ai/ha,0
same,Pigweed plant response rating (0 to 100 scale),[4]; 500 g ai/ha,60
same,Ragweed plant response rating (0 to 100 scale),[5]; 125 g ai/ha,50
same,Ragweed plant response rating (0 to 100 scale),[5]; 500 g ai/ha,80
same,"Ryegrass, Italian plant response rating (0 to 100 scale)",[6],90
same,Barnyardgrass plant response rating,[7]; 125 g ai/ha,40
same,Barnyardgrass plant response rating,[7]; 500 g ai/ha,90
same,Blackgrass plant response rating,[8]; 125 g ai/ha,80
same,Blackgrass plant response rating,[8]; 500 g ai/ha,90
same,Corn plant response rating,corn (Zea mays); 125 g ai/ha,80
same,Corn plant response rating,corn (Zea mays); 500 g ai/ha,90
same,"Foxtail, Giant plant response rating",[9]; 125 g ai/ha,80
same,"Foxtail, Giant plant response rating",[9]; 500 g ai/ha,90
same,Galium plant response rating,[10]; 125 g ai/ha,50
same,Galium plant response rating,[10]; 500 g ai/ha,70
same,Kochia plant response rating,kochia (Kochia scoparia) [11]; 125 g ai/ha,0
same,Kochia plant response rating,kochia (Kochia scoparia) [11]; 500 g ai/ha,50
same,Pigweed plant response rating,[12]; 125 g ai/ha,0
same,Pigweed plant response rating,[12]; 500 g ai/ha,20
same,Ragweed plant response rating,[13]; 125 g ai/ha,0
same,Ragweed plant response rating,[13]; 500 g ai/ha,70
same,"Ryegrass, Italian plant response rating",[14]; 125 g ai/ha,70
same,"Ryegrass, Italian plant response rating",[14]; 500 g ai/ha,80
same,Wheat plant response rating,[15]; 125 g ai/ha,50
same,Wheat plant response rating,[15]; 500 g ai/ha,80
same,Ducksalad plant response rating (0 to 100 scale),[16],0
same,Barnyardgrass plant response rating (0 to 100 scale),[17],0
same,Rice plant response rating (0 to 100 scale),rice (Oryza sativa),0
